Type in all cases: biochemical
One experiment has as its target T1, His6-PYR1 / biotin-ABI2 (Arabidopsis thaliana, UniProt O49686).
T1 construct: made in house; host or cells: E. coli (stated for the PP2Cs; not expressly for PYR1)
T1 sequence (O49686 1-191): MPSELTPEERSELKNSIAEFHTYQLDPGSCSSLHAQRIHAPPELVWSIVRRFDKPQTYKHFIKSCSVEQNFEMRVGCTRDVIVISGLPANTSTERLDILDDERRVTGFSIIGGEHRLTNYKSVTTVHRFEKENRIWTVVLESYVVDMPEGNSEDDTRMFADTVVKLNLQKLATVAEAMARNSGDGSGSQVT
T1 sequence (O04719 101-423 partner limits assumed): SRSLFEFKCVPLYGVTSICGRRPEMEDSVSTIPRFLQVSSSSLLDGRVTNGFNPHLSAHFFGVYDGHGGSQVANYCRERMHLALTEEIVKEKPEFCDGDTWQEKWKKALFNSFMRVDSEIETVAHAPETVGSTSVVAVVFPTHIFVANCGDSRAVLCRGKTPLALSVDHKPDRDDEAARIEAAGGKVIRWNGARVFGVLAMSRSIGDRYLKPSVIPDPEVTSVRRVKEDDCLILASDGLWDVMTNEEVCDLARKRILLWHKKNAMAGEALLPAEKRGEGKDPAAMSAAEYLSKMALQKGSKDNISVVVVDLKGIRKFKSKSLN
Kind of experiment: AlphaScreen dose response, PYR1-ABI2 interaction. The note with it: 100 nM His6-PYR1, 100 nM biotin-PP2C, 0-100 μM agonist; from dose response curves. As to the method: (§1) Interactions between PYR/PYL and PP2Cs were assessed by luminescence-proximity AlphaScreen technology (Perkin Elmer). Briefly, biotinylated PP2Cs were attached to streptavidin-coated donor beads, and H6-tagged PYR/PYL receptors were attached to nickel-chelated acceptor beads. The donor and acceptor beads were brought into proximity by the interactions between PYR/PYLs and PP2Cs, which were measured with and without ligands. When excited by a laser beam of 680 nm, the donor beam emits singlet oxygen that activates thioxene derivatives in the acceptor beads, which releases photons of 520-620 nm as the binding signal. The experiments were conducted with 100 nM of PP2Cs and PYR/PYL proteins in the presence of 5 ug/ml donor and acceptor beads in a buffer of 50 mM MOPS, pH7.4, 50 mM NaF, […], and 0.1 mg/ml bovine serum albumin. The results were based on an average of three experiments with standard errors typically less than 10% of the measurements.
(§2) The results shown in Table 5b were calculated from the dose response curves of the dependence of the interaction between 100 nM His6-PYR1 and 100 nM biotin-PP2C on the presence of 0-100 μM agonists determined by AlphaScreen luminescence proximity assay. Key (EC50 in μM): ++++=<5.0 μM; +++=5-10 μM; ++=10-20 μM; and +=>20-60 μM.
A general note: Bead proximity is the source of the signal in Alpha formats.

A further experiment has as its target T2, His6-PYL3 / biotin-PP2C (Arabidopsis thaliana, UniProt Q9SSM7).
T2 construct: made in house; host or cells: not expressly stated for PYL3
T2 sequence (Q9SSM7 1-209): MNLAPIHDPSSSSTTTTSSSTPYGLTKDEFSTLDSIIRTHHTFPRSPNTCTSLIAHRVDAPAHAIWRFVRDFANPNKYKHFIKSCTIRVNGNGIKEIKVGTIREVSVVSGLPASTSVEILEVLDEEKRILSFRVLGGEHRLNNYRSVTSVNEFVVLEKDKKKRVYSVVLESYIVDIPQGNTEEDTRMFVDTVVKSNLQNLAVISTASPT
Briefly: AlphaScreen luminescence proximity assay, PYL3-PP2C interaction. Conditions: for Stimulation of the interaction between PYL3 and PP2C (binding signal): 100 nM His6-PYL3, 100 nM biotin-PP2C, 100 μM agonist, normalized against a pyrabactin control. As to the method:
(§3) Mutant proteins were expressed as H6GST-fusion proteins and purified by glutathione sepharose chromatography. Protein-protein interactions were determined by luminescence proximity AlphaScreen assay. Biotinylated PP2C proteins for the luminescence proximity assay were generated by in vivo biotinylation of avitag-PP2C fusion proteins. PP2C phosphatase activity was measured by phosphate release from a SnRK2.6 phosphoprotein.
as §1
Values were determined in different experiments and normalized against a pyrabactin control. Blank spaces mean no experimental data is available. Key (photon counts (binding signal units) in Alphascreen luminescence proximity assay): “+++ is >75,000; ++ is 25,000−75,000; + is <25,000.

A further experiment deals with T3, HAB1 (Arabidopsis thaliana, UniProt O49686+Q9CAJ0).
T3 construct: HAB1 (residues 172-511) were prepared as recombinant proteins in E. coli; H6GST or H6Sumo; made in house; host or cells: E. coli
T3 sequence (Q9CAJ0 172-511 limits assumed): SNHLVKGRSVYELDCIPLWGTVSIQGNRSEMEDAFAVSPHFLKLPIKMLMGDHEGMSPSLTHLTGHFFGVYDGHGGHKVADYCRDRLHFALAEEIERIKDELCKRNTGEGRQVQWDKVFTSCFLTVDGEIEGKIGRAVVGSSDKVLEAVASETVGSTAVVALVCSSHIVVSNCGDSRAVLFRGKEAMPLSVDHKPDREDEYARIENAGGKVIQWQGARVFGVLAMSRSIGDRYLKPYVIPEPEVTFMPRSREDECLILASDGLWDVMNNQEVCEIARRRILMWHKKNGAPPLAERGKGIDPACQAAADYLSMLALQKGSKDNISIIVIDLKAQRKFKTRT
T3 sequence (O49686 1-191): T1 sequence (O49686 1-191)
Briefly: PP2C phosphatase activity assay, HAB1. The note with it: 200 nM PP2C; SnRK2.6 phosphopeptide substrate; None = 100. As to the method: as §3
(§4) PP2Cs and PYR/PYL proteins were pre-incubated at the indicated concentrations in 50 mM imidazole, pH 7.2, 5 mM MgCl2, 0.1% β-mercaptoethanol and 0.5 mg/ml BSA for 30 min at room temperature. Reactions were started by addition of 100 μM of a phosphopeptide corresponding to amino acids 170-180 of SnRK2.6 (HSQPK^pSTVGTP). This peptide is phosphorylated at a single residue corresponding to Ser175 in SnRK2.6, whose phosphorylation is required for SnRK2.6 kinase activity^32. Phosphate release from ^pS175 from the phosphopeptide was determined by colorimetric assay (BioVision).

The target of another experiment is T4, ABI1 (Arabidopsis thaliana, UniProt O49686+P49597).
T4 construct: ABI1 (residues 117-434) and ABI2 (residues 101-423) were expressed as H6Sumo fusion proteins; H6Sumo (N); made in house; host or cells: E. coli BL21
T4 sequence (P49597 117-434 limits assumed): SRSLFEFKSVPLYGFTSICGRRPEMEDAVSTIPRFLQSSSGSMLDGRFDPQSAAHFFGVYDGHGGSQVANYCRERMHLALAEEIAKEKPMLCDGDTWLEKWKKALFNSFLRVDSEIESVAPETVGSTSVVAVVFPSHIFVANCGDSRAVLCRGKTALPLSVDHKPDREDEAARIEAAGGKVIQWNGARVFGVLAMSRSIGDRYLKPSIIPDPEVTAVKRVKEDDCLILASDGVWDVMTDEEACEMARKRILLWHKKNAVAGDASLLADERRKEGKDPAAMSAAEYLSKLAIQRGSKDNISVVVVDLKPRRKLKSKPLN
T4 sequence (O49686 1-191): T1 sequence (O49686 1-191)
Briefly: PP2C phosphatase activity assay, ABI1. The note with it: 200 nM PP2C; SnRK2.6 phosphopeptide substrate; None = 100. As to the method: as §3, §4

Another experiment has as its target T5, His6-PYR1 / biotin-ABI1 (Arabidopsis thaliana, UniProt O49686).
T5 construct: made in house; host or cells: E. coli (stated for the PP2Cs; not expressly for PYR1)
T5 sequence (O49686 1-191): T1 sequence (O49686 1-191)
T5 sequence (P49597 117-434 partner limits assumed): T4 sequence (P49597 117-434 limits assumed)
Kind of experiment: AlphaScreen dose response, PYR1-ABI1 interaction. Conditions: 100 nM His6-PYR1, 100 nM biotin-PP2C, 0-100 μM agonist; from dose response curves. Here is the method:
as §1, §2

One may read the EC50 as the midpoint of the concentration-response curve. High values mean lower potency in that assay, low ones higher potency in that assay. Consider `O=C1Nc2ccc(S(=O)(=O)NCc3ccccn3)c3cccc1c23` [Compound 1], for which the EC50 at His6-PYR1 / biotin-ABI2 lay in the range of 20 to 60 µM; on His6-PYR1 / biotin-ABI1, 10 to 20 µM. Moreover, the “Stimulation of the interaction between PYL3 and PP2C (binding signal)” value (from here on “Stimulation”) on His6-PYL3 / biotin-PP2C is recorded as “+ (+ is <25,000)”. For the same compound, the “% Phosphatase Activity HAB1” value on HAB1 came out at 16.6 ± 2.0%. In addition, the “% Phosphatase Activity ABI1” value at ABI1 is reported as 3.3 ± 1.0%.
For `CCOC(=O)CNS(=O)(=O)c1ccc2c3c(cccc13)C(=O)N2CC` [Compound 2], the results for the concentration for a half-maximal effect (EC50) on His6-PYR1 / biotin-ABI2 and at His6-PYR1 / biotin-ABI1 were 20 to 60 µM and 10 to 20 µM, respectively. Besides, the “Stimulation” value at His6-PYL3 / biotin-PP2C is “+ (+ is <25,000)”. Also, the “% Phosphatase Activity HAB1” value on HAB1 is on record as 6.1 ± 1.9%. Moreover, at ABI1, the “% Phosphatase Activity ABI1” value is listed as 4.3 ± 0.8%.
Consider `CCN1C(=O)c2cccc3c(S(=O)(=O)NC[C@@H]4CCCO4)ccc1c23` [Compound 11], for which the EC50 at His6-PYR1 / biotin-ABI2 is 20 to 60 µM; at His6-PYR1 / biotin-ABI1 it was 10 to 20 µM. Besides, the “Stimulation” value on His6-PYL3 / biotin-PP2C is “++ (++ is 25,000−75,000)”. Moreover, the “% Phosphatase Activity HAB1” value at HAB1 is recorded as 8.8 ± 0.3%. Moreover, the “% Phosphatase Activity ABI1” value on ABI1 came out at 4.7 ± 1.0%.
Consider `O=S(=O)(NCc1ccccn1)c1ccc(Br)c2ccccc12` [Pyrabactin, pyrabactin], for which the 50% effective concentration (EC50) on His6-PYR1 / biotin-ABI2 and at His6-PYR1 / biotin-ABI1 was 5 to 10 µM throughout. In addition, the “Promotion of PYL3 interaction with the three PP2Cs” value at His6-PYL3 / biotin-PP2C (purified proteins in vitro, HAB1, ABI1, ABI2) is on record as “promoted interaction”. The “% Phosphatase Activity HAB1” value on HAB1 amounted to 12.6 ± 0.3%. In addition, the “% Phosphatase Activity ABI1” value on ABI1 was 2.8 ± 0.2%.

Source of the values: US20130045952A1, “ABA Receptor Agonists for Increased Plant Stress Resistance” (Van Andel Research Institute, priority 2011, published 2013).
